# From ChEMBL document CHEMBL1152535, “Synthesis of branched 9-[2-(2-phosphonoethoxy)ethyl]purines as a new class of acyclic nucleoside phosphonates which inhibit Plasmodium falciparum hypoxanthine-guanine-xanthine phosphoribosyltransferase” (Bioorg Med Chem, 2009)
# How the values were obtained:
# [1] = Inhibition of Plasmodium falciparum recombinant HGXPRT expressed in Escherichia coli by spectrophotometric assay
# [2] = target: T1, Hypoxanthine-guanine phosphoribosyltransferase (Homo sapiens, UniProt P00492); test: Inhibition of human recombinant HGPRT expressed in Escherichia coli by spectrophotometric assay
# T1 sequence (P00492 whole entry): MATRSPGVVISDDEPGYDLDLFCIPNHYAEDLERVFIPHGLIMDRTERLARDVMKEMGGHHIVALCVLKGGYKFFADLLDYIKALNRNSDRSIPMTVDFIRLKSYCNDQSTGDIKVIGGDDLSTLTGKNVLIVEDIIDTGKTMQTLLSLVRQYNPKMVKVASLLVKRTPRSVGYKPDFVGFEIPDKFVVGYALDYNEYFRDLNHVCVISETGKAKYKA
# [3] = Selectivity ratio of Ki for human recombinant HGPRT to Ki for Plasmodium falciparum recombinant HGXPRT
Ki [2],Ratio Ki [3],SMILES,Ki [1]
2000 nM,0.2,CC(CP(=O)(O)O)OCCn1cnc2c(=O)[nH]cnc21 (configuration not stated),10 µM
300 nM,0.06,CCC(CP(=O)(O)O)OCCn1cnc2c(=O)[nH]c(N)nc21 (configuration not stated),5 µM
10000 nM,0.15,CCC(CP(=O)(O)O)OCCn1cnc2c(=O)[nH]cnc21 (configuration not stated),69 µM
100 nM,0.1,CC(CP(=O)(O)O)OCCn1cnc2c(=O)[nH]c(N)nc21 (configuration not stated),1 µM
